The structures appear in SMILES notation. Converted amounts (≈) assume the structure as drawn. Like-named read-outs stand apart in the source and are kept apart here.

One assay has as its system Escherichia coli. The assay can be described thus: In vitro broth microdilution minimal inhibitory concentration (MIC), Mueller-Hinton broth. In kind it is cell-based. The note with it: 24-hour MIC, standard microdilution method, read-out: Minimum Inhibitory Concentration Escherichia coli. The text has this: (§1) A standard microdilution method (National Committee for Clinical Standards. Tentative standard M7-T. Standard methods for dilution antimicrobial susceptibility tests for bacteria that grow aerobically. National Committee for Clinical Laboratory Standards, Villanova, PA. 1982) with Mueller-Hinton broth is used to determine the 24-hour minimal inhibitory concentrations (MIC's) for test strains of Staphylococcus aureus and Escherichia coli.
A general note: Dilution methods test growth across graded concentrations, often in twofold steps.

For assay [1], the system named is Staphylococcus aureus. The assay is described as above. In kind it is cell-based. To be noted: 24-hour MIC, standard microdilution method, read-out: Minimum Inhibitory Concentration Staphylococcus aureus.
Source text: as §1

In assay [2] the test system is Staphylococcus Aureus. The assay can be described thus: In vivo activity in an acute lethal mouse infection model. The note with it: 168 h, mice infected intraperitoneally with S. aureus, dosed at one hour and four hours post-infection, survivors on seventh day. On the procedure: The in vivo potency of these compounds is exemplified by the data summarized in Table V. Determinations of in vivo efficacy are performed by inoculating mice intraperitoneally with cultures of the infecting organism diluted to produce 100% mortality in control animals within twenty-four hours. The culture of S. aureus used to infect the animals was diluted to the required bacterial density using 5% aqueous hog gastric mucin. The compounds are dissolved or suspended in 0.25% aqueous Methocel® (Methocel®: Hydroxypropyl Methylcellulose, E15 Premium, Dow Chemical Company) for oral administration or sterile distilled water containing 5% dimethylsulfoxide (Fisher Scientific Company, Fairlawn, NJ) for subcutaneous administration. The mice are dosed at one hour and at four hours post-infection. Mortality is recorded daily until test termination seven days post infection. The number of survivors in each treatment group on the seventh day after infection is used in the calculation of the ED₅₀, the dose of compound that protects 50% of the mice (Litchfield, J. T. and Wildoxon. A simplified method for evaluating dose-effect experiments. J. Pharmacol Exp. Ther., 96:99-113, 1949).

The mark [3] stands for this setting: oral in 0.25% aqueous Methocel, read-out: ED₅₀ Oral Administration.
Setting [4] is: sc, subcutaneous in sterile distilled water containing 5% dimethylsulfoxide, read-out: ED₅₀ Subcutaneous Administration.

For `CC(=O)NC[C@H]1CN(c2ccc(C(O)c3ccccc3)cc2)C(=O)O1` (stereo partly drawn) [Example 20], the MIC in the assay with Escherichia coli was above 128 µg/mL; in the assay on Staphylococcus aureus [1], 32 µg/mL (≈ 94 µM). Moreover, the ED50 in the assay on Staphylococcus Aureus [2] (setting [3]) came out at 65 mg/kg; in the assay on Staphylococcus Aureus [2] (setting [4]), 52 mg/kg.

Turning to `CC(=O)NC[C@H]1CN(c2ccc(C(=O)c3ccc(F)cc3F)cc2)C(=O)O1` [Example 6, (ℓ)-N-[3-[4-(2,4-difluorobenzoyl)phenyl]-2-oxooxazolidin-5-ylmethyl]acetamide], the MIC with Escherichia coli was above 128 µg/mL; in the assay with Staphylococcus aureus [1], 1 µg/mL (≈ 2.67 µM). Also, the ED50 stood at 30 mg/kg in the assay with Staphylococcus Aureus [2] (setting [3]) and 26 mg/kg in the assay on Staphylococcus Aureus [2] (setting [4]).

Consider `CC(=O)NC[C@H]1CN(c2ccc(C(=O)c3cccc(F)c3)cc2)C(=O)O1` [Example 5], for which the MIC was above 128 µg/mL with Escherichia coli and 8 µg/mL (≈ 22.4 µM) with Staphylococcus aureus [1]. Also, the ED50 with Staphylococcus Aureus [2] (setting [3]) came to 42 mg/kg; with Staphylococcus Aureus [2] (setting [4]), 25 mg/kg.

On to `COc1ccc(C(=O)c2ccc(N3C[C@H](CNC(C)=O)OC3=O)cc2)cc1` [Example 3], for which the MIC is above 128 µg/mL with Escherichia coli and 4 µg/mL (≈ 10.9 µM) with Staphylococcus aureus [1]. In addition, the ED50 with Staphylococcus Aureus [2] (setting [3]) is 41 mg/kg; in the assay on Staphylococcus Aureus [2] (setting [4]), 15 mg/kg.

With `CC(=O)NC[C@H]1CN(c2ccc(C(=O)c3ccc([N+](=O)[O-])cc3)cc2)C(=O)O1` [Example 9, (ℓ)-N-[3-[4-(4-nitrobenzoyl)phenyl]-2-oxooxazolidin-5-ylmethyl]acetamide], the figures for the MIC with Escherichia coli and in the assay on Staphylococcus aureus [1] were above 128 µg/mL and 1 µg/mL (≈ 2.61 µM), respectively. Further, the ED50 in the assay with Staphylococcus Aureus [2] (setting [3]) and in the assay on Staphylococcus Aureus [2] (setting [4]) was above 90 mg/kg in each case.

As to `COc1cc(Cl)ccc1C(=O)c1ccc(N2C[C@H](CNC(C)=O)OC2=O)cc1` [Example 7], the figures for the MIC with Escherichia coli and in the assay with Staphylococcus aureus [1] were above 128 µg/mL and 32 µg/mL (≈ 79.4 µM), respectively. In addition, the ED50 in the assay on Staphylococcus Aureus [2] (setting [3]) and in the assay on Staphylococcus Aureus [2] (setting [4]) was above 120 mg/kg in each case.

For the compound `CC(=O)NC[C@H]1CN(c2ccc(C(=O)c3cccnc3)cc2)C(=O)O1` [Example 15], the MIC in the assay with Escherichia coli was above 128 µg/mL; with Staphylococcus aureus [1] it was 8 µg/mL (≈ 23.6 µM). Further, the ED50 in the assay on Staphylococcus Aureus [2] (setting [3]) was above 90 mg/kg; in the assay on Staphylococcus Aureus [2] (setting [4]), 59 mg/kg.

Consider `CSc1ccc(C(=O)c2ccc(N3C[C@H](CNC(C)=O)OC3=O)cc2)cc1` [Example 8], for which the MIC with Escherichia coli was above 128 µg/mL; in the assay with Staphylococcus aureus [1], 4 µg/mL (≈ 10.4 µM). For the same compound, the ED50 with Staphylococcus Aureus [2] (setting [3]) and in the assay with Staphylococcus Aureus [2] (setting [4]) was above 90 mg/kg each time.

Regarding `CC(=O)NC[C@H]1CN(c2ccc(C(=O)c3ccc([S+](C)[O-])cc3)cc2)C(=O)O1` (stereo partly drawn) [Example 10], the values for the MIC in the assay on Escherichia coli and in the assay on Staphylococcus aureus [1] were above 128 µg/mL and 16 µg/mL (≈ 40 µM), respectively. For the same compound, the ED50 with Staphylococcus Aureus [2] (setting [3]) and in the assay with Staphylococcus Aureus [2] (setting [4]) was above 90 mg/kg each time.

For the compound `CC(=O)NC[C@H]1CN(c2ccc(C(=O)c3ccc(F)cc3)cc2)C(=O)O1` [Example 1, (ℓ)-N-[3-[4-(4-fluorobenzoyl)-phenyl]-2-oxooxazolidin-5-ylmethyl]acetamide], the results for the MIC in the assay with Escherichia coli and in the assay on Staphylococcus aureus [1] were above 128 µg/mL and 4 µg/mL (≈ 11.2 µM), respectively. For the same compound, the ED50 was 40 mg/kg with Staphylococcus Aureus [2] (setting [3]) and 20 mg/kg in the assay with Staphylococcus Aureus [2] (setting [4]).

As for `CC(=O)NC[C@H]1CN(c2ccc(C(=O)c3ccc(S(C)(=O)=O)cc3)cc2)C(=O)O1` [Example 11], the MIC was above 128 µg/mL in the assay with Escherichia coli and 4 µg/mL (≈ 9.6 µM) with Staphylococcus aureus [1]. Also, the ED50 with Staphylococcus Aureus [2] (setting [3]) and in the assay on Staphylococcus Aureus [2] (setting [4]) was above 90 mg/kg throughout.

On to `CC(=O)NC[C@H]1CN(c2ccc(C(=O)c3ccccc3)cc2)C(=O)O1` [Example 2], for which the MIC was above 128 µg/mL in the assay on Escherichia coli and 4 µg/mL (≈ 11.8 µM) in the assay with Staphylococcus aureus [1]. The ED50 with Staphylococcus Aureus [2] (setting [3]) was 47 mg/kg; in the assay on Staphylococcus Aureus [2] (setting [4]), 60 mg/kg.
